Results taken from patent publication US12059420B2 (BRISTOL-MYERS SQUIBB COMPANY, priority 2018, dated 2024).
pIC50: −log10 of the molar value.

molecular target: T1, human IDO1 (Homo sapiens, UniProt P14902); test: IDO inhibition assay in HEK293 cells stably expressing human IDO1 (kynurenine production, Ehrlich reagent, absorbance 490 nm); assay type: cell-based; conditions: 20 hours incubation with compound, 500 nM reference standard = 100% inhibition, read-out: IDO1 HEK Human IC50
T1 construct: expressed in transfected cells
How it was run: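 HEK293 clones stably expressing human IDO1 (10,000 cells/well, phenol red-free RPMI, 10% FBS) were treated with compound for 20 hours at 37° C. After 0.2% TCA and 30 min at 50° C., kynurenine was read with Ehrlich reagent at 490 nm. IC50 was normalised to DMSO (0%) and 500 nM reference standard (100%).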

T1 sequence (P14902 whole entry): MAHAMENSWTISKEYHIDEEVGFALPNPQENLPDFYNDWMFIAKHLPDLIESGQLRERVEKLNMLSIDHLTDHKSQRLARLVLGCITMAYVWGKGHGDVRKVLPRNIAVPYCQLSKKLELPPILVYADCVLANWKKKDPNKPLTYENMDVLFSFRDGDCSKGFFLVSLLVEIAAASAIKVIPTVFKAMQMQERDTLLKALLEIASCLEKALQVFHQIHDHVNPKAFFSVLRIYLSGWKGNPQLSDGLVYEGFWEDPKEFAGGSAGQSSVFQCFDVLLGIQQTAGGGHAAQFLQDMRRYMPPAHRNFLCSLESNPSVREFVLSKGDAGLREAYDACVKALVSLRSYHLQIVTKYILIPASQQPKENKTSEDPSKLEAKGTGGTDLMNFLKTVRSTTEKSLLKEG

Structure (SMILES) | pIC50
CC(C)CN(Cc1ccccc1)c1cc(Nc2ccc(C(=O)O)cc2F)cc(-c2ccccc2-c2nnn[nH]2)n1 [Example 166, 4-((2-(2-(1H-tetrazol-5-yl)phenyl)-6-(benzyl(isobutyl)amino)pyridin-4-yl)amino)-3-fluorobenzoic acid] | 5.39
Cc1nccnc1Nc1cc(-c2ccccc2-c2nnn[nH]2)nc(N(Cc2ccccc2)CC(C)C)c1 [Example 167, 6-(2-(1H-tetrazol-5-yl)phenyl)-N2-benzyl-N2-isobutyl-N4-(3-methylpyrazin-2-yl)pyridine-2,4-diamine] | 6.69
CC(C)CN(Cc1ccccc1)c1cc(Nc2ccc(F)c(Cl)c2)cc(-c2ccccc2-c2nnn[nH]2)n1 [Example 169, 6-(2-(1H-tetrazol-5-yl)phenyl)-N2-benzyl-N4-(3-chloro-4-fluorophenyl)-N2-isobutylpyridine-2,4-diamine] | 7.95
COc1cnc(Nc2cc(-c3ccccc3-c3nnn[nH]3)nc(N(Cc3ccccc3)CC(C)C)c2)nc1 [Example 172, 6-(2-(1H-tetrazol-5-yl)phenyl)-N2-benzyl-N2-isobutyl-N4-(5-methoxypyrimidin-2-yl)pyridine-2,4-diamine] | 7.84
CC(C)CN(Cc1ccccc1)c1cc(Nc2ncnc3[nH]ccc23)cc(-c2ccccc2-c2nnn[nH]2)n1 [Example 173, 6-(2-(1H-tetrazol-5-yl)phenyl)-N2-benzyl-N2-isobutyl-N4-(7H-pyrrolo[2,3-d]pyrimidin-4-yl)pyridine-2,4-diamine] | 6.59
Cc1cc(Nc2cc(-c3ccccc3-c3nnn[nH]3)nc(N(Cc3ccccc3)CC(C)C)c2)ccc1C#N [Example 176, 4-((2-(2-(1H-tetrazol-5-yl)phenyl)-6-(benzyl(isobutyl)amino)pyridin-4-yl)amino)-2-methylbenzonitrile] | 7.98
CC(C)CN(Cc1ccccc1)c1cc(Nc2ccc(F)c(F)c2)cc(-c2ccccc2-c2nnn[nH]2)n1 [Example 181, 6-(2-(1H-tetrazol-5-yl)phenyl)-N2-benzyl-N4-(3,4-difluorophenyl)-N2-isobutylpyridine-2,4-diamine] | 8.37
CC(C)CN(Cc1ccccc1)c1cc(Nc2ccc3c(c2)OC(F)(F)O3)cc(-c2ccccc2-c2nnn[nH]2)n1 [Example 182, 6-(2-(1H-tetrazol-5-yl)phenyl)-N2-benzyl-N4-(2,2-difluorobenzo[d][1,3]dioxol-5-yl)-N2-isobutylpyridine-2,4-diamine] | 8.02
Cc1cc(F)cnc1Nc1cc(-c2ccccc2-c2nnn[nH]2)nc(N(Cc2ccccc2)CC(C)C)c1 [Example 183, 6-(2-(1H-tetrazol-5-yl)phenyl)-N2-benzyl-N4-(5-fluoro-3-methylpyridin-2-yl)-N2-isobutylpyridine-2,4-diamine] | 6.89
CC(C)CN(Cc1ccccc1)c1cc(Nc2cc(F)ccc2C(=O)O)cc(-c2ccccc2-c2nnn[nH]2)n1 [Example 185, 2-((2-(2-(1H-tetrazol-5-yl)phenyl)-6-(benzyl(isobutyl)amino)pyridin-4-yl)amino)-4-fluorobenzoic acid] | 5.56
COc1ccc(Nc2cc(-c3ccccc3-c3nnn[nH]3)nc(N(Cc3ccccc3)CC(C)C)c2)c(F)c1 [Example 186, 6-(2-(1H-tetrazol-5-yl)phenyl)-N2-benzyl-N4-(2-fluoro-4-methoxyphenyl)-N2-isobutylpyridine-2,4-diamine] | 8.46
Cc1ccc(Nc2cc(-c3ccccc3-c3nnn[nH]3)nc(N(Cc3ccccc3)CC(C)C)c2)c(C#N)c1 [Example 187, 2-((2-(2-(1H-tetrazol-5-yl)phenyl)-6-(benzyl(isobutyl)amino)pyridin-4-yl)amino)-5-methylbenzonitrile] | 7.00
COc1cc(Nc2cc(-c3ccccc3-c3nnn[nH]3)nc(N(Cc3ccccc3)CC(C)C)c2)ccc1Cl [Example 188, 6-(2-(1H-tetrazol-5-yl)phenyl)-N2-benzyl-N4-(4-chloro-3-methoxyphenyl)-N2-isobutylpyridine-2,4-diamine] | 8.70
CC(C)CN(Cc1ccccc1)c1cc(Nc2cccc(OC(F)(F)C(F)F)c2)cc(-c2ccccc2-c2nnn[nH]2)n1 [Example 189, 6-(2-(1H-tetrazol-5-yl)phenyl)-N2-benzyl-N2-isobutyl-N4-(3-(1,1,2,2-tetrafluoroethoxy)phenyl)pyridine-2,4-diamine] | 8.03
COc1cc(Nc2cc(-c3ccccc3-c3nnn[nH]3)nc(N(Cc3ccccc3)CC(C)C)c2)ccc1F [Example 190, 6-(2-(1H-tetrazol-5-yl)phenyl)-N2-benzyl-N4-(4-fluoro-3-methoxyphenyl)-N2-isobutylpyridine-2,4-diamine] | 8.07
CC(C)CN(Cc1ccccc1)c1cc(Nc2cccc(C(F)F)c2)cc(-c2ccccc2-c2nnn[nH]2)n1 [Example 191, 6-(2-(1H-tetrazol-5-yl)phenyl)-N2-benzyl-N4-(3-(difluoromethyl)phenyl)-N2-isobutylpyridine-2,4-diamine] | 7.58
CC(C)CN(Cc1ccccc1)c1cc(Nc2cccc(C#N)c2)cc(-c2ccccc2-c2nnn[nH]2)n1 [Example 192, 3-((2-(2-(1H-tetrazol-5-yl)phenyl)-6-(benzyl(isobutyl)amino)pyridin-4-yl)amino)benzonitrile] | 7.70
CC(C)CN(Cc1ccccc1)c1cc(Nc2cccc(OC(F)(F)F)c2)cc(-c2ccccc2-c2nnn[nH]2)n1 [Example 193, 6-(2-(1H-tetrazol-5-yl)phenyl)-N2-benzyl-N2-isobutyl-N4-(3-(trifluoromethoxy)phenyl)pyridine-2,4-diamine] | 7.85
COc1cccc(Nc2cc(-c3ccccc3-c3nnn[nH]3)nc(N(Cc3ccccc3)CC(C)C)c2)c1 [Example 196, 6-(2-(1H-tetrazol-5-yl)phenyl)-N2-benzyl-N2-isobutyl-N4-(3-methoxyphenyl)pyridine-2,4-diamine] | 8.15
COc1cc(F)cc(Nc2cc(-c3ccccc3-c3nnn[nH]3)nc(N(Cc3ccccc3)CC(C)C)c2)c1 [Example 197, 6-(2-(1H-tetrazol-5-yl)phenyl)-N2-benzyl-N4-(3-fluoro-5-methoxyphenyl)-N2-isobutylpyridine-2,4-diamine] | 8.24

The remaining lines, values ahead:

pIC50 | Structure (SMILES)
8.10 | CC(C)CN(Cc1ccccc1)c1cc(Nc2cnc(Cl)nc2)cc(-c2ccccc2-c2nnn[nH]2)n1 [Example 164, 6-(2-(1H-tetrazol-5-yl)phenyl)-N2-benzyl-N4-(2-chloropyrimidin-5-yl)-N2-isobutylpyridine-2,4-diamine]
5.95 | CC(C)CN(Cc1ccccc1)c1cc(Nc2ccc3nncn3n2)cc(-c2ccccc2-c2nnn[nH]2)n1 [Example 165, 6-(2-(1H-tetrazol-5-yl)phenyl)-N4-([1,2,4]triazolo[4,3-b]pyridazin-6-yl)-N2-benzyl-N2-isobutylpyridine-2,4-diamine]
6.41 | Cc1cccnc1Nc1cc(-c2ccccc2-c2nnn[nH]2)nc(N(Cc2ccccc2)CC(C)C)c1 [Example 168, 6-(2-(1H-tetrazol-5-yl)phenyl)-N2-benzyl-N2-isobutyl-N4-(3-methylpyridin-2-yl)pyridine-2,4-diamine]
8.31 | CC(C)CN(Cc1ccccc1)c1cc(Nc2ccc(F)cc2)cc(-c2ccccc2-c2nnn[nH]2)n1 [Example 170, 6-(2-(1H-tetrazol-5-yl)phenyl)-N2-benzyl-N4-(4-fluorophenyl)-N2-isobutylpyridine-2,4-diamine]
8.96 | CC(C)CN(Cc1ccccc1)c1cc(Nc2ccc(Cl)cc2)cc(-c2ccccc2-c2nnn[nH]2)n1 [Example 171, 6-(2-(1H-tetrazol-5-yl)phenyl)-N2-benzyl-N4-(4-chlorophenyl)-N2-isobutylpyridine-2,4-diamine]
7.78 | CC(C)CN(Cc1ccccc1)c1cc(Nc2ccc(Cl)cc2Cl)cc(-c2ccccc2-c2nnn[nH]2)n1 [Example 174, 6-(2-(1H-tetrazol-5-yl)phenyl)-N2-benzyl-N4-(2,4-dichlorophenyl)-N2-isobutylpyridine-2,4-diamine]
7.26 | Cc1cc(F)ccc1Nc1cc(-c2ccccc2-c2nnn[nH]2)nc(N(Cc2ccccc2)CC(C)C)c1 [Example 175, 6-(2-(1H-tetrazol-5-yl)phenyl)-N2-benzyl-N4-(4-fluoro-2-methylphenyl)-N2-isobutylpyridine-2,4-diamine]
7.76 | CC(C)CN(Cc1ccccc1)c1cc(Nc2ccccc2Cl)cc(-c2ccccc2-c2nnn[nH]2)n1 [Example 177, 6-(2-(1H-tetrazol-5-yl)phenyl)-N2-benzyl-N4-(2-chlorophenyl)-N2-isobutylpyridine-2,4-diamine]
7.23 | CC(C)CN(Cc1ccccc1)c1cc(Nc2ncccc2F)cc(-c2ccccc2-c2nnn[nH]2)n1 [Example 178, 6-(2-(1H-tetrazol-5-yl)phenyl)-N2-benzyl-N4-(3-fluoropyridin-2-yl)-N2-isobutylpyridine-2,4-diamine]
7.96 | CC(C)CN(Cc1ccccc1)c1cc(Nc2ccccc2F)cc(-c2ccccc2-c2nnn[nH]2)n1 [Example 179, 6-(2-(1H-tetrazol-5-yl)phenyl)-N2-benzyl-N4-(2-fluorophenyl)-N2-isobutylpyridine-2,4-diamine]
8.66 | CC(C)CN(Cc1ccccc1)c1cc(Nc2ccc(Cl)cc2F)cc(-c2ccccc2-c2nnn[nH]2)n1 [Example 180, 6-(2-(1H-tetrazol-5-yl)phenyl)-N2-benzyl-N4-(4-chloro-2-fluorophenyl)-N2-isobutylpyridine-2,4-diamine]
6.64 | CC(C)CN(Cc1ccccc1)c1cc(Nc2ccccc2C#N)cc(-c2ccccc2-c2nnn[nH]2)n1 [Example 194, 2-((2-(2-(1H-tetrazol-5-yl)phenyl)-6-(benzyl(isobutyl)amino)pyridin-4-yl)amino)benzonitrile]
7.70 | CC(C)CN(Cc1ccccc1)c1cc(Nc2cccc(C(F)F)n2)cc(-c2ccccc2-c2nnn[nH]2)n1 [Example 195, 6-(2-(1H-tetrazol-5-yl)phenyl)-N2-benzyl-N4-(6-(difluoromethyl)pyridin-2-yl)-N2-isobutylpyridine-2,4-diamine]
